# Reference: article PMC7395068, “The evolution of strategies to minimise the risk of human drug-induced liver injury (DILI) in drug discovery and development” (Archives of Toxicology, 2020)
# How the values were obtained:
# [1] = Total human plasma exposure Cmax.tot; type: in vivo; conditions: across literature references
# HepaRG cells = conditions: HepaRG cells, BMCs in relation to 10 × human Cmax.tot; ref National Toxicology Program; cited from earlier work
SMILES,difference in Cmax.tot values utilised across studies [1] [fold],DILI identification by high-throughput transcriptomics (HepaRG cells)
"CC(C)C(=O)Nc1ccc([N+](=O)[O-])c(C(F)(F)F)c1 [flutamide, reference compound]",16.6,
"Cc1c(C)c2c(c(C)c1O)CCC(C)(COc1ccc(CC3SC(=O)NC3=O)cc1)O2 (centres unmarked) [troglitazone, reference compound]",,identified
